According to patent publication US6090987A, “Metal-ligand complex catalyzed processes” (Union Carbide Chemicals & Plastics Technology Corporation, priority 1998, dated 2000):

Assays:
[1] = Decomposition of free Ligand F and deactivated complex formation at 145° C. by HPLC (FIG. 3); format: physicochemical; details: nitrogen 80 psig, no diene
Experimental: A catalyst solution (5 milliliters), 600 parts per million in rhodium and 0.8 weight percent in Ligand F generated as in Example 2 was charged to a 3 ounce Fisher Porter bottle and alternately flushed evacuated with nitrogen, then placed in a 145° C. oil bath under nitrogen (80 psig total pressure) and then monitored by HPLC at 1 and 3 hours for the Ligand F and deactivated complex concentrations. The free Ligand F concentration was 0.75, 0.57 and 0.37 weight percent at 0, 1 and 3 hours, respectively, while the deactivated complex concentration was 0.010, 0.57 and 0.89 weight percent at 0, 1 and 3 hours respectively.
The same procedure as in Example 21 was followed except the catalyst solution was treated with 1 milliliter of 1,3-butadiene and then heated at 145° C. for 3 hours (45 psig total pressure). The free Ligand F concentration measured by HPLC (high pressure liquid chromatography) was 0.75, 0.66, and 0.62 weight percent at 0, 1 and 3 hours, respectively, while the deactivated complex concentration was 0.010, 0.012, and 0.05 weight percent at 0, 1 and 3 hours respectively.

[2] = Residual propylene hydroformylation activity after heat treatment, Ligand F catalyst (Table 1)
Experimental: A catalyst solution (100 milliliters) was generated in a six ounce Fisher Porter Bottle by dissolving 0.063 grams of rhodium dicarbonyl 2,4-pentanedionate, 0.8 grams of Ligand F, 20 grams of n-butyraldehyde, and 78.7 grams of tetraethylene glycol dimethyl ether, subsequently alternately evacuating and flushing with nitrogen; and finally adding 60 psi of CO:H2, and placing the bottles in a 100° C. oil bath for 1 hour.
(§1) After closing the reactor, the system was again purged with nitrogen and place in an oil bath heated to 100° C. The hydroformylation reaction in each experiment was conducted at a total gas pressure of 160 psig. The target partial pressure of hydrogen, carbon monoxide, and propylene being about 45 psia, 45 psia, and 5 psia respectively, with the remainder being nitrogen. The flows of the feed gases (carbon monoxide, hydrogen, propylene, and nitrogen) were controlled individually with mass flow meters. The feed gases were dispersed into the precursor solution via stainless steel 7-micron filters used as spargers. The unreacted portion of the feed gases stripped out the product aldehydes. Each experiment was operated for 24 hours under the above conditions. The activity is defined as the observed reaction rate divided by the predicted reaction rate. The reaction rates are expressed in terms of gram moles per liter per hour.
The same procedure as in Example 2 was followed with the exception that a slow stream of 1,2-propadiene was purged through the initially generated catalyst solution for 5 minutes. Excess was then removed by alternately evacuating and flushing with nitrogen. The resulting solution was heated at 125° C. as in Example 2, and 20 milliliters of the resulting solution was transferred to a glass reactor as in Example 2 and the activity determined.
(§2) The same procedure as in Example 3 was followed except 2 milliliters of 1,3-butadiene was added to the generated catalyst and stirred for 5 minutes. Excess 1,3-butadiene was then removed by alternate evacuation and flushing with nitrogen. The resulting solution was heated at 125° C. as in Example 2, and 20 milliliters of the resulting solution was transferred to a glass reactor as in Example 2 and the activity determined.
The same procedure as in Example 4 was followed with the exception that 50 milliliters of a catalyst solution generated as in Example 2 was treated with 0.5 milliliters of 2-methyl-1,3-butadiene (isoprene) in place of 1,3-butadiene.
A catalyst solution (20 milliliters) was generated in a Fisher Porter Bottle as in Example 2 under 60 psi CO:H2 for 1 hour, then cooled to room temperature and treated with 0.5 milliliters of 1,3-butadiene. The solution was removed from the Fisher Bottle by hypodermic syringe and transferred to a 100 milliliter stirred stainless vessel and maintained at 140° C. under 15 psi nitrogen for 14 hours. The resulting solution was then transferred to the glass reactors as in Example 2, and the residual catalyst activity measured. […]
The same procedure as in Example 8 was followed except allene was employed in place of 1,3-butadiene, and the resulting solution heated at 140° C. for 48 hours without removing excess allene.
A 20 milliliter sample of freshly generated catalyst solution (prepared as in Example 2) was charged to the glass reactors and the activity measured.
The same procedure as in Example 8 was followed except 0.4 grams of 1,3-cyclohexadiene was employed in place of 1,3-butadiene.

[3] = Propylene hydroformylation rate and colour of (TPP)3 Rh(CO)H catalyst after thermal treatment; details: for hydroformylation rate: control without butadiene, 100° C.; for color change of catalyst solution: control
Experimental: TPP is triphenylphosphine. 15 grams of this bright yellow solution was charged to a Fisher Porter bottle under inert gas. To this solution was added 20 psi of butadiene with stirring. The pressure dropped as the butadiene dissolved into the solution. The reactor was repressured twice with butadiene (20 psig) and then the reaction was place under a total of 45 psig with nitrogen. The solution was heated to 120° C. for 15 minutes. […] At ambient temperature, the reaction was placed under vacuum for 4 hours to remove any excess butadiene.
Since the solvent has a very high boiling point, the concentration of rhodium was assumed to have remained unchanged while under vacuum. Indeed, no change in volume was detected visually while under vacuum. 15.0 milliliters of the 275 parts per million solution was charged to a 100 milliliter autoclave.
This example is a control for Example 23. 15 grams of the catalyst solution prepared in Example 23 was charged to a Fisher Porter bottle under inert gas. 45 psig of nitrogen was added to the reaction vessel, then the reaction was heated to 120° C. for 15 minutes. […] 15.0 milliliters of the 275 parts per million solution was charged to a 100 milliliter autoclave.
A catalyst solution was prepared by adding 113 milligrams of (TPP)3 Rh(CO)H to 40.4 grams Filmer IBT® available from Union Carbide Corporation, Danbury, Conn., resulting in a rhodium concentration of 312 parts per million. At this point, the rhodium complex was a suspended in the solvent. Approximately 20 grams of this solution of (TPP)3 Rh(CO)H in tetraglyme was charged to a Fisher Porter bottle under inert gas. To this solution was added 30 psi of butadiene with stirring. The pressure dropped to 20 psig as the butadiene dissolved into the solution. The reactor was repressured twice with butadiene (30 psig) and then the pressure was adjusted to 60 psig with nitrogen. The solution was placed into 140° C. oil bath, which caused the reaction to become homogeneous within a minute. The reaction was maintained at 140° C. for 50 minutes. […] The reaction vessel was removed from the oil bath and the butadiene was vented from the reactor while the reaction was hot. After gas evolution ceased, the reaction vessel was placed carefully placed under dynamic vacuum until gas evolution had ceased for 10 minutes. The reaction was then placed under a slight positive pressure of nitrogen. […] 15.0 milliliters of the 284 parts per million solution was charged to a 100 milliliter autoclave.
This example serves as a control for Example 25. Approximately 20 grams of the solution prepared in Example 25 was charged to a Fisher Porter bottle under inert gas. 60 psig of nitrogen was added to the reaction vessel, then the reaction was heated to 140° C. for approximately 110 minutes. […] This solution was place into and out of the oil bath at the same time as the solution in Example 25. After thermal treatment, 10 weight percent of triphenylphosphine was added to the reaction mixture. […] 15 milliliters of the 284 parts per million solution was charged to a 100 milliliter autoclave.

[4] = Residual propylene hydroformylation activity after heat treatment, Ligand D catalyst (Table 1); details: fresh catalyst control, no heat treatment
Experimental: as §1, with “About 20 milliliters of the solution was charged to a glass reactor via a syringe after purging the reactor with nitrogen (see Examples 14-20 below). After” for “After”
as §2
The same procedure as in Example 4 was followed except Ligand D (as identified herein) was employed in place of Ligand F. The results are given in Table 1.
The same procedure as in Example 10 was followed except the fresh catalyst solution contained Ligand D in place of Ligand F. The results are given in Table 1.

[5] = 125° C./24 hours, no excess diene
[6] = 140° C./24 hours, excess diene present
[7] = 140° C./48 hours, excess diene present
[8] = 125° C./50 hours, no excess diene

CC(C)(C)c1cc(-c2cc(C(C)(C)C)cc(C(C)(C)C)c2Op2oc3ccccc3c3ccccc3o2)c(Op2oc3ccccc3c3ccccc3o2)c(C(C)(C)C)c1 [Ligand F]
deactivated complex concentration ([1]; 0 hours): 0.010 weight percent
free Ligand F concentration ([1]; 0 hours): 0.75 weight percent
deactivated complex concentration ([1]; 1 hour): 0.57 weight percent
free Ligand F concentration ([1]; 1 hour): 0.57 weight percent
deactivated complex concentration ([1]; 3 hours): 0.89 weight percent
free Ligand F concentration ([1]; 3 hours): 0.37 weight percent
% Activity [2, 5]: 10.0%
Final Rate [2, 5]: 0.22 gram moles per liter per hour
Final Rate ([2]; fresh catalyst control, no heat treatment): 2.18 gram moles per liter per hour

c1ccc(P(c2ccccc2)c2ccccc2)cc1 [triphenylphosphine, reference compound]
hydroformylation rate ([3]; after 120° C. for 15 minutes under nitrogen, 275 ppm Rh, 115 psig): 0.8 gmol/L-h
hydroformylation rate ([3]; after 140° C. for approximately 110 minutes, 284 ppm Rh, 95 psig): 0.3 gmol/L-h
color change of catalyst solution ([3]; 120° C. for 15 minutes under nitrogen): turn from bright yellow to dark brown
color change of catalyst solution ([3]; 140° C. for approximately 110 minutes under nitrogen): turn from bright yellow to dark brown

C1=CCCC=C1 [1,3-cyclohexadiene]
% Activity [2, 6]: 4.13%
Final Rate [2, 6]: 0.09 gram moles per liter per hour

COc1cc(-c2cc(OC)cc(C(C)(C)C)c2Op2oc3ccccc3c3ccccc3o2)c(Op2oc3ccccc3c3ccccc3o2)c(C(C)(C)C)c1 [Ligand D, 6,6'-[[3,3'-bis(1,1-dimethylethyl)-5,5'-dimethoxy-[1,1' -biphenyl]-2,2'-diyl]bis(oxy)]bis-dibenzo[d,f][1,3,2]dioxaphosphepin]
Final Rate [4]: 1.16 gram moles per liter per hour

C=C=C [Allene, 1,2-propadiene]
% Activity [2, 5]: 101%
Final Rate [2, 5]: 2.22 gram moles per liter per hour
% Activity [2, 7]: 47.2%
Final Rate [2, 7]: 1.03 gram moles per liter per hour

C=CC(=C)C [Isoprene, 2-methyl-1,3-butadiene]
% Activity [2, 8]: 73.8%
Final Rate [2, 8]: 1.55 gram moles per liter per hour
